In PubChem BioAssay (NCI):
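Growth conditions: 96-well plates. Treatment: test compound, 48 hours, 5 concentrations. Analysis: linear interpolation between bracketing concentrations; unreached endpoints set to highest concentration. GI50 is the concentration that inhibits growth by half. TGI is the concentration that stops growth completely.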

Key:
Test in all cases: NCI-60 cell line screen, 48 h
[1] = test system: OVCAR-8 ovarian
[2] = test system: NCI-H23 lung
[3] = test system: M14 melanoma
[4] = test system: MALME-3M melanoma
[5] = test system: MDA-MB-468 breast
[6] = test system: RXF 393 renal
[7] = test system: NCI-H522 lung
[8] = test system: SNB-19 CNS
[9] = test system: SNB-75 CNS
[10] = test system: COLO 205 colon
[11] = test system: SR leukemia
[12] = test system: HCT-15 colon
[13] = test system: HCC-2998 colon
[14] = test system: NCI-H460 lung
[15] = test system: SF-295 CNS
[16] = test system: UO-31 renal
[17] = test system: A549 NSCLC
[18] = test system: T-47D breast
[19] = test system: TK-10 renal
[20] = test system: MCF7 breast
[21] = test system: DU-145 prostate
[22] = test system: K-562 leukemia
[23] = test system: BT-549 breast
[24] = test system: SF-268 CNS
[25] = test system: MDA-MB-435
[26] = test system: HL-60(TB) leukemia
[27] = test system: UACC-257 melanoma
[28] = test system: RPMI-8226 leukemia
[29] = test system: HOP-62 NSCLC
[30] = test system: IGROV1 ovarian
[31] = test system: NCI-H226 lung
[32] = test system: UACC-62 melanoma
[33] = test system: 786-0 renal
[34] = test system: SN12C renal
[35] = test system: OVCAR-3 ovarian
[36] = test system: OVCAR-4 ovarian
[37] = test system: A498 renal
[38] = test system: NCI/ADR-RES ovarian
[39] = test system: OVCAR-5 ovarian
[40] = test system: SK-MEL-28 melanoma
[41] = test system: U251 CNS
[42] = test system: SF-539 CNS
[43] = test system: HS 578T breast
[44] = test system: CAKI-1 renal
[45] = test system: LOX IMVI melanoma
[46] = test system: KM12 colon
[47] = test system: SK-MEL-5 melanoma
[48] = test system: PC-3 prostate
[49] = test system: HT29 colon
[50] = test system: SW-620 colon
[51] = test system: HCT-116 colon
[52] = test system: SK-OV-3 ovarian
[53] = test system: SK-MEL-2 melanoma
[54] = test system: EKVX NSCLC
[55] = test system: MOLT-4 leukemia
[56] = test system: CCRF-CEM leukemia
[57] = test system: HOP-92 NSCLC
[58] = test system: ACHN renal
[59] = test system: MDA-MB-231 breast

SMILES: O=C(NO)c1ccc(CNC(=O)[C@H]2Cc3c([nH]c4ccccc34)[C@H](c3ccc(Cl)cc3)N2)cc1
- GI50 [1]: 942 nM
- TGI [1]: > 22000 nM
- GI50 [2]: 1330 nM
- TGI [2]: 4260 nM
- GI50 [3]: 2200 nM
- TGI [3]: 8420 nM
- GI50 [4]: 410 nM
- TGI [4]: 2310 nM
- GI50 [5]: 380 nM
- TGI [5]: 1140 nM
- GI50 [6]: 455 nM
- TGI [6]: 2250 nM
- GI50 [7]: 584 nM
- TGI [7]: 3160 nM
- GI50 [8]: 2260 nM
- TGI [8]: 5300 nM
- GI50 [9]: 2260 nM
- TGI [9]: 7580 nM
- GI50 [10]: 719 nM
- TGI [10]: 3380 nM
- GI50 [11]: 1150 nM
- TGI [11]: > 22000 nM
- GI50 [12]: 4260 nM
- TGI [12]: > 22000 nM
- GI50 [13]: 605 nM
- TGI [13]: 3080 nM
- GI50 [14]: 1020 nM
- TGI [14]: > 22000 nM
- GI50 [15]: 1810 nM
- TGI [15]: 4750 nM
- GI50 [16]: 2640 nM
- TGI [16]: 6270 nM
- GI50 [17]: 3970 nM
- TGI [17]: > 22000 nM
- GI50 [18]: 600 nM
- TGI [18]: 5440 nM
- GI50 [19]: 1510 nM
- TGI [19]: 14600 nM
- GI50 [20]: 874 nM
- TGI [20]: 8360 nM
- GI50 [21]: 1080 nM
- TGI [21]: > 22000 nM
- GI50 [22]: 720 nM
- TGI [22]: > 22000 nM
- GI50 [23]: 4930 nM
- TGI [23]: 11000 nM
- GI50 [24]: 2920 nM
- TGI [24]: 12500 nM
- GI50 [25]: 959 nM
- TGI [25]: 4360 nM
- GI50 [26]: 706 nM
- TGI [26]: 3130 nM
- GI50 [27]: 1230 nM
- TGI [27]: > 22000 nM
- GI50 [28]: 564 nM
- TGI [28]: > 22000 nM
- GI50 [29]: 1270 nM
- TGI [29]: 7420 nM
- GI50 [30]: 1200 nM
- TGI [30]: 4270 nM
- GI50 [31]: 2270 nM
- TGI [31]: 11600 nM
- GI50 [32]: 538 nM
- TGI [32]: 2940 nM
- GI50 [33]: 3710 nM
- TGI [33]: 14200 nM
- GI50 [34]: 2410 nM
- TGI [34]: 9150 nM
- GI50 [35]: 1230 nM
- TGI [35]: 9150 nM
- GI50 [36]: 3730 nM
- TGI [36]: > 22000 nM
- GI50 [37]: 2060 nM
- TGI [37]: 9060 nM
- GI50 [38]: 3350 nM
- TGI [38]: > 22000 nM
- GI50 [39]: 456 nM
- TGI [39]: 3010 nM
- GI50 [40]: 878 nM
- TGI [40]: 3620 nM
- GI50 [41]: 1210 nM
- TGI [41]: 5800 nM
- GI50 [42]: 1140 nM
- TGI [42]: 4240 nM
- GI50 [43]: 1010 nM
- TGI [43]: > 22000 nM
- GI50 [44]: 2330 nM
- TGI [44]: 9730 nM
- GI50 [45]: 1090 nM
- TGI [45]: 4760 nM
- GI50 [46]: 2360 nM
- TGI [46]: 6710 nM
- GI50 [47]: 721 nM
- TGI [47]: 2710 nM
- GI50 [48]: 1760 nM
- TGI [48]: 9170 nM
- GI50 [49]: 838 nM
- TGI [49]: > 22000 nM
- GI50 [50]: 687 nM
- TGI [50]: 2370 nM
- GI50 [51]: 609 nM
- TGI [51]: 3720 nM
- GI50 [52]: 2010 nM
- TGI [52]: 5900 nM
- GI50 [53]: 2770 nM
- TGI [53]: 7030 nM
- GI50 [54]: 2650 nM
- TGI [54]: 16400 nM
- GI50 [55]: 563 nM
- TGI [55]: > 22000 nM
- GI50 [56]: 617 nM
- TGI [56]: > 22000 nM
- GI50 [57]: 930 nM
- TGI [57]: 4480 nM
- GI50 [58]: 3050 nM
- TGI [58]: 9570 nM
- GI50 [59]: 887 nM
- TGI [59]: 4000 nM
